Test results reported in article PMC5341070, “Small molecule inhibitors block Gas6-inducible TAM activation and tumorigenicity” (Scientific Reports, 2017).

How the values were obtained:
Experiment in all cases: biochemical
Design in all cases: KINOMEscan (DiscoverX) competition binding screen of 97 human kinases, percent of control at 10 uM
MKNK2 = MKNK2 (Homo sapiens, UniProt Q9HBH9)
Description: (§1) The KINOMEscan profiling of the inhibitors were performed as per directions by the manufacturer (DiscoverX) against a panel of human protein kinases.

FGFR2 = FGFR2 (Homo sapiens, UniProt P21802)
Description: as §1

PCTK1 = biological target: T1, PCTK1 (Homo sapiens, UniProt Q00536)
T1 construct: gene CDK16
Description: as §1

ERK1 = biological target: T2, ERK1 (Homo sapiens, UniProt P27361)
T2 construct: gene MAPK3
Description: as §1

PRKCE = PRKCE (Homo sapiens, UniProt Q02156)
Description: as §1

DCAMKL1 = biological target: T3, DCAMKL1 (Homo sapiens, UniProt O15075)
T3 construct: gene DCLK1
T3 sequence (O15075 whole entry): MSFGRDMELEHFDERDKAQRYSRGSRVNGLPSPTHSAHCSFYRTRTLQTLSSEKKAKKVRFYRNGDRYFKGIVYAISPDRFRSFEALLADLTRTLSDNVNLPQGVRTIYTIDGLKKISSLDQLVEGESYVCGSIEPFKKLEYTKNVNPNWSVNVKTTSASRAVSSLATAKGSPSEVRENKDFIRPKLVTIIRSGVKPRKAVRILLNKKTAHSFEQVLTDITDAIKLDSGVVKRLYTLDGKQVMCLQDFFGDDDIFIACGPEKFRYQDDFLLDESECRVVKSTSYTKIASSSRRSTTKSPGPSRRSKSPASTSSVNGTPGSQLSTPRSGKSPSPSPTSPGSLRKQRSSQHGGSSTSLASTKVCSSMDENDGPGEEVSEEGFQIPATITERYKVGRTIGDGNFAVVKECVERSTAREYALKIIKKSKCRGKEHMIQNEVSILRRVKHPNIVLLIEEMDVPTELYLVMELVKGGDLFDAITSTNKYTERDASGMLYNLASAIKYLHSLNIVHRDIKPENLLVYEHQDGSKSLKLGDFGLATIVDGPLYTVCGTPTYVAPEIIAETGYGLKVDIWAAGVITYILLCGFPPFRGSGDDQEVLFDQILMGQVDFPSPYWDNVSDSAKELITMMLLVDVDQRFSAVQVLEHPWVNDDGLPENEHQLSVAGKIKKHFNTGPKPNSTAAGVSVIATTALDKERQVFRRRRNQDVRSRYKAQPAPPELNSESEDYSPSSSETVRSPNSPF
Description: as §1

EGFR = EGFR (Homo sapiens, UniProt P00533)
Description: as §1

PAK4 = PAK4 (Homo sapiens, UniProt O96013)
Chain of PAK4 (O96013 whole entry): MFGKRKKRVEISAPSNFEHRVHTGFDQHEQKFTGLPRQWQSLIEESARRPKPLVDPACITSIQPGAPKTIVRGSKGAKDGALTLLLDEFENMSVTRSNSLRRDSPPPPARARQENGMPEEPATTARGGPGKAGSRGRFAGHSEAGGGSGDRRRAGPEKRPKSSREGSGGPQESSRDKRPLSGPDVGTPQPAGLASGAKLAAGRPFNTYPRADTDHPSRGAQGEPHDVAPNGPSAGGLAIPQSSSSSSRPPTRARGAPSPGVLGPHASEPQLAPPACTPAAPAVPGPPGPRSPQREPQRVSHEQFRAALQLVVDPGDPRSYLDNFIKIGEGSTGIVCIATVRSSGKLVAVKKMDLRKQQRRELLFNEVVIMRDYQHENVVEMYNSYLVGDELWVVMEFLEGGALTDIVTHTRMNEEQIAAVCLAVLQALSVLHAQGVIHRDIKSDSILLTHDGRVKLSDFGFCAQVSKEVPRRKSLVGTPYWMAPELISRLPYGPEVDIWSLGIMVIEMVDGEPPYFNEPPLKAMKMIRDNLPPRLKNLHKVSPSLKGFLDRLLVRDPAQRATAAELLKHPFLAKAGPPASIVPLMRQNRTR
Description: as §1

CDK11 = biological target: T4, CDK11 (Homo sapiens, UniProt Q9BWU1)
T4 construct: gene CDK19
Description: as §1

MEK2 = biological target: T5, MEK2 (Homo sapiens, UniProt P36507)
T5 construct: gene MAP2K2
Description: as §1

PDPK1 = PDPK1 (Homo sapiens, UniProt O15530)
Chain of PDPK1 (O15530 whole entry): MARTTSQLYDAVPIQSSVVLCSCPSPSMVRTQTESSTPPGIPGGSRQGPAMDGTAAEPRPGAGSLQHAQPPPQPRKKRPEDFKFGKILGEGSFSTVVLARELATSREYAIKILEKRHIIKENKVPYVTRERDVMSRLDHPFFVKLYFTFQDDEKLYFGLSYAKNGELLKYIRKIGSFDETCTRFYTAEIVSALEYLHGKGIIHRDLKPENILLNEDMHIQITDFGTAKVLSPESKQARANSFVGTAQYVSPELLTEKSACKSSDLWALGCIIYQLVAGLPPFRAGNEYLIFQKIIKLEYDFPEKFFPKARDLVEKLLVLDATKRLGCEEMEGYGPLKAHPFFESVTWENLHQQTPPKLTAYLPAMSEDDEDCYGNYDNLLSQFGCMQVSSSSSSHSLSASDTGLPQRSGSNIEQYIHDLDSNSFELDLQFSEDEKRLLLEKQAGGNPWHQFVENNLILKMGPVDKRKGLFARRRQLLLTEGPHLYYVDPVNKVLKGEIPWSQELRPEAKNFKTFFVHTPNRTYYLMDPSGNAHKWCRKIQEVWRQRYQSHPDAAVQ
Description: as §1

PDGFRB = PDGFRB (Homo sapiens, UniProt P09619)
Description: as §1

PLK3 = PLK3 (Homo sapiens, UniProt Q9H4B4)
Chain of PLK3 (Q9H4B4 whole entry): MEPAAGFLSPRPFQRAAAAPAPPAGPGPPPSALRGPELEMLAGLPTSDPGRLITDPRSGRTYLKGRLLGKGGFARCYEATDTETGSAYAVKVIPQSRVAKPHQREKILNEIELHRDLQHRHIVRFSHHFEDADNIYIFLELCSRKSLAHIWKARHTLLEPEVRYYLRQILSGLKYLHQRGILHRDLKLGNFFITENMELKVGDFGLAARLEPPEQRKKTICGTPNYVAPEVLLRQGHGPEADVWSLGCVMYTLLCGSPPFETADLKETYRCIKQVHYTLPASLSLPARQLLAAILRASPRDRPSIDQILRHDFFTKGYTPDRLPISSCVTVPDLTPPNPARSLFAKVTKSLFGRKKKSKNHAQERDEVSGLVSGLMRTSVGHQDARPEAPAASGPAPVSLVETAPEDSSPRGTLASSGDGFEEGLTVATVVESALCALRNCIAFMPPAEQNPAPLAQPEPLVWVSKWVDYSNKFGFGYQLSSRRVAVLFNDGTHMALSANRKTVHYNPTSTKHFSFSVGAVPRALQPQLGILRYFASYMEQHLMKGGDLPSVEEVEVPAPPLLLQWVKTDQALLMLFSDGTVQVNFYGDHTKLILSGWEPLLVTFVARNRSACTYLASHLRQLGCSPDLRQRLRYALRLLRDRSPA
Description: as §1

[1] = biological target: T6, TYK2(JH1domain-catalytic) (Homo sapiens, UniProt P29597)
T6 construct: JH1domain-catalytic
T6 sequence (P29597 whole entry): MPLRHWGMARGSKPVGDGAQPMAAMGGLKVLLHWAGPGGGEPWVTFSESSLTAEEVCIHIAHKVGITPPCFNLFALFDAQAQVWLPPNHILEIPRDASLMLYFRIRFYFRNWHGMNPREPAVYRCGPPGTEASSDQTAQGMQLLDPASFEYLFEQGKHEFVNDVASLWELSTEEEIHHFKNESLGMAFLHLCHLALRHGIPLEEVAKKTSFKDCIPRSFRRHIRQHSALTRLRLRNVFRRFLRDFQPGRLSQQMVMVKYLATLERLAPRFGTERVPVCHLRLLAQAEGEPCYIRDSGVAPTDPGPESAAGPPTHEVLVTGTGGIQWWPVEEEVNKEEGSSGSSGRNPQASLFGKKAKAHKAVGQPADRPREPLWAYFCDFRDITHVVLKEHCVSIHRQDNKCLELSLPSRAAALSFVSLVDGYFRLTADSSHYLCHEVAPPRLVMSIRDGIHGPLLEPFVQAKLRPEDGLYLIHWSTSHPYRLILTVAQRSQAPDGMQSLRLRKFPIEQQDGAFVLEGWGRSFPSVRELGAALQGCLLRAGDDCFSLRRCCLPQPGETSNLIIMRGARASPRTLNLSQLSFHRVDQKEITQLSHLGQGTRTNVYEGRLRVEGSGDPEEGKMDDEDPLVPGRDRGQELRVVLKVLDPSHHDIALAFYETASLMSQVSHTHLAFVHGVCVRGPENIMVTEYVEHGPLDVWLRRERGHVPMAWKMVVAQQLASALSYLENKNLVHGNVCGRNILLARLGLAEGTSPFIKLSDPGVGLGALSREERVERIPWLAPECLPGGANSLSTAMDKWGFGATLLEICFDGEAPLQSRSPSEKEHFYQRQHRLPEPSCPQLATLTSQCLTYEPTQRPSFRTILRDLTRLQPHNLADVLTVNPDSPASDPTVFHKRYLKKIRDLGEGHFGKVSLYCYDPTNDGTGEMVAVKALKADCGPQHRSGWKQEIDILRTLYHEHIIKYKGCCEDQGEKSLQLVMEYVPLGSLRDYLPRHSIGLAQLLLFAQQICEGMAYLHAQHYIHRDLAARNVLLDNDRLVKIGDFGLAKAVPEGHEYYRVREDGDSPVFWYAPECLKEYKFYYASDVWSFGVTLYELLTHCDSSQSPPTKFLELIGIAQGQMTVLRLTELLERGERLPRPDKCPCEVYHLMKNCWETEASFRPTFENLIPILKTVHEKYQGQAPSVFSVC
Description: as §1

ACVR1B = ACVR1B (Homo sapiens, UniProt P36896)
Description: as §1

EPHA2 = EPHA2 (Homo sapiens, UniProt P29317)
Description: as §1

IKK-beta = biological target: T7, IKK-beta (Homo sapiens, UniProt O14920)
T7 construct: gene IKBKB
Description: as §1

PIK3CA = PIK3CA (Homo sapiens, UniProt P42336)
Chain of PIK3CA (P42336 whole entry): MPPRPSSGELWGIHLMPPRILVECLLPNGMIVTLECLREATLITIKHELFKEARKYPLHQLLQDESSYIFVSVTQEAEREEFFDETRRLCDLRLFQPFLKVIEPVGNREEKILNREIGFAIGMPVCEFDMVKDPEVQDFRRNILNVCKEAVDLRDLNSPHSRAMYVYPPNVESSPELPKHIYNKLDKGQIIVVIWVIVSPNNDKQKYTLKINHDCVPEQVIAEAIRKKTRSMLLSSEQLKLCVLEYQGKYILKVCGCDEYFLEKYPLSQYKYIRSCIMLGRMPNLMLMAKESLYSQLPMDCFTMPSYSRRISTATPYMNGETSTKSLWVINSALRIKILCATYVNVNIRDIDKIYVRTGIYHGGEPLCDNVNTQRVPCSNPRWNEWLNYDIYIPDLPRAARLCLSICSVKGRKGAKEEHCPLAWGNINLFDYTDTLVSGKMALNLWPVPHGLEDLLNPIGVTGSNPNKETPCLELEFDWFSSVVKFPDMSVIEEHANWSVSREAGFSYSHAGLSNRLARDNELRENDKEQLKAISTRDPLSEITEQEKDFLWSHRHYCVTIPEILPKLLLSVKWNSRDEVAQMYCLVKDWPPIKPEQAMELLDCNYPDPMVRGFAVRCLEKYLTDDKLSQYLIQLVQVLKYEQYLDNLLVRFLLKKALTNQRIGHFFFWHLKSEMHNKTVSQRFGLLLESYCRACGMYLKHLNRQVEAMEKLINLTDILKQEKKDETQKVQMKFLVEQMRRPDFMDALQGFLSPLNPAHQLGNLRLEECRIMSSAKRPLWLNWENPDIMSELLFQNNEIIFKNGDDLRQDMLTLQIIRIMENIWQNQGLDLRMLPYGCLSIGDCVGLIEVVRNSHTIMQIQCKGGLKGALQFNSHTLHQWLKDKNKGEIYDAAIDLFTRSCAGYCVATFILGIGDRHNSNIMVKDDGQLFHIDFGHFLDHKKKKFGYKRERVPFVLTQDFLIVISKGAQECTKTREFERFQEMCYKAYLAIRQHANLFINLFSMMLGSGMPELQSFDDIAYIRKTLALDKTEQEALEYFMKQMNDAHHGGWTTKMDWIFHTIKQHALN
Description: as §1

SRC = SRC (Homo sapiens, UniProt P12931)
Description: as §1

BRAF(V600E) = BRAF(V600E) (Homo sapiens, UniProt P15056, V600E)
Description: as §1

BRAF = BRAF (Homo sapiens, UniProt P15056)
Description: as §1

ERBB4 = ERBB4 (Homo sapiens, UniProt Q15303)
Description: as §1

KIT(V559D,T670I) = KIT(V559D,T670I) (Homo sapiens, UniProt P10721, T670I/V559D)
Description: as §1

[2] = binding competition, % of control, read-out: RU-301 %Ctrl @ 10000nM
[3] = read-out: R428 %Ctrl @ 10000nM, binding competition

## Cc1cc(CSc2ccccc2C(=O)NCCNc2ccc(C(F)(F)F)cc2[N+](=O)[O-])on1 [RU-301]
MKNK2; [2]
  remaining binding at 10 µM: 100%
FGFR2; [2]
  remaining binding at 10 µM: 100%
PCTK1; [2]
  remaining binding at 10 µM: 100%
ERK1; [2]
  remaining binding at 10 µM: 100%
PRKCE; [2]
  remaining binding at 10 µM: 91%
DCAMKL1; [2]
  remaining binding at 10 µM: 81%
EGFR; [2]
  remaining binding at 10 µM: 100%
PAK4; [2]
  remaining binding at 10 µM: 93%
CDK11; [2]
  remaining binding at 10 µM: 94%
MEK2; [2]
  remaining binding at 10 µM: 71%
PDPK1; [2]
  remaining binding at 10 µM: 99%
PDGFRB; [2]
  remaining binding at 10 µM: 91%
PLK3; [2]
  remaining binding at 10 µM: 91%
[1]; [2]
  remaining binding at 10 µM: 55%
ACVR1B; [2]
  remaining binding at 10 µM: 96%
EPHA2; [2]
  remaining binding at 10 µM: 96%
IKK-beta; [2]
  remaining binding at 10 µM: 100%
PIK3CA; [2]
  remaining binding at 10 µM: 100%
SRC; [2]
  remaining binding at 10 µM: 96%
BRAF(V600E); [2]
  remaining binding at 10 µM: 94%
BRAF; [2]
  remaining binding at 10 µM: 99%
ERBB4; [2]
  remaining binding at 10 µM: 83%
KIT(V559D,T670I); [2]
  remaining binding at 10 µM: 85%

## Nc1nc(Nc2ccc3c(c2)CC[C@@H](N2CCCC2)CC3)nn1-c1cc2c(nn1)-c1ccccc1CCC2 [R428]
MKNK2; [3]
  percent of control binding at 10 µM: 0%
FGFR2; [3]
  percent of control binding at 10 µM: 30%
PCTK1; [3]
  percent of control binding at 10 µM: 90%
ERK1; [3]
  percent of control binding at 10 µM: 100%
PRKCE; [3]
  percent of control binding at 10 µM: 24%
DCAMKL1; [3]
  percent of control binding at 10 µM: 98%
EGFR; [3]
  percent of control binding at 10 µM: 74%
PAK4; [3]
  percent of control binding at 10 µM: 85%
CDK11; [3]
  percent of control binding at 10 µM: 98%
MEK2; [3]
  percent of control binding at 10 µM: 0.2%
PDPK1; [3]
  percent of control binding at 10 µM: 34%
PDGFRB; [3]
  percent of control binding at 10 µM: 0%
PLK3; [3]
  percent of control binding at 10 µM: 29%
[1]; [3]
  percent of control binding at 10 µM: 17%
ACVR1B; [3]
  percent of control binding at 10 µM: 26%
EPHA2; [3]
  percent of control binding at 10 µM: 71%
IKK-beta; [3]
  percent of control binding at 10 µM: 4.8%
PIK3CA; [3]
  percent of control binding at 10 µM: 45%
SRC; [3]
  percent of control binding at 10 µM: 14%
BRAF(V600E); [3]
  percent of control binding at 10 µM: 70%
BRAF; [3]
  percent of control binding at 10 µM: 64%
ERBB4; [3]
  percent of control binding at 10 µM: 34%
KIT(V559D,T670I); [3]
  percent of control binding at 10 µM: 0.05%
